Tested on: a variety of test species
Test: Post-emergence herbicidal activity (glasshouse, sprayed 8 days after sowing, evaluated after 13 days); on Post-emergence herbicidal damage score, ABUTH (Abutilon theophrasti): key: 5=total damage to plant; 0=no damage to plant; on Post-emergence herbicidal damage score, AMARE (Amaranthus retroflexus): key: 5=total damage to plant; 0=no damage to plant
Assay type: in vivo
Details: 1000 g/ha, scale 0-5
Outline: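 Foliar application to 8-day-old plants using a 0.5% Tween 20 acetone/water carrier; phytotoxicity is scored visually from 0 to 5 after 13 days of growth at 24/16 °C day/night.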

CC1=C(Br)C(O)N(c2cc3n(n2)CCC3(C)C)C1=O (stereo not drawn) [Compound H7]
Post-emergence herbicidal damage score, ABUTH (Abutilon theophrasti): 5
Post-emergence herbicidal damage score, ALOMY (Alopecurus myosuroides): 5
Post-emergence herbicidal damage score, AMARE (Amaranthus retroflexus): 4
Post-emergence herbicidal damage score, ECHCG (Echinochloa crus-galli): 3
Post-emergence herbicidal damage score, SETFA (Setaria faberi): 4
Post-emergence herbicidal damage score, ZEAMX (Zea mays): 1

CC1=C(Br)C(O)N(c2cc(C(C)(C)C)[nH]n2)C1=O (stereo not drawn) [Compound H2]
Post-emergence herbicidal damage score, ABUTH (Abutilon theophrasti): 5
Post-emergence herbicidal damage score, ALOMY (Alopecurus myosuroides): 3
Post-emergence herbicidal damage score, AMARE (Amaranthus retroflexus): 5
Post-emergence herbicidal damage score, ECHCG (Echinochloa crus-galli): 2
Post-emergence herbicidal damage score, SETFA (Setaria faberi): 4
Post-emergence herbicidal damage score, ZEAMX (Zea mays): 2

CC1=C(Cl)C(O)N(c2cc(C(C)(C)C#N)n(C)n2)C1=O (stereo not drawn) [Compound B23]
Post-emergence herbicidal damage score, ABUTH (Abutilon theophrasti): 4
Post-emergence herbicidal damage score, ALOMY (Alopecurus myosuroides): 3
Post-emergence herbicidal damage score, AMARE (Amaranthus retroflexus): 5
Post-emergence herbicidal damage score, ECHCG (Echinochloa crus-galli): 5
Post-emergence herbicidal damage score, SETFA (Setaria faberi): 4
Post-emergence herbicidal damage score, ZEAMX (Zea mays): 1

COC1=C(Cl)C(O)N(c2cc(C(C)(C)C)n(C)n2)C1=O (stereo not drawn) [Compound J1, 1-(5-tert-butyl-1-methyl-pyrazol-3-yl)-3-chloro-2-hydroxy-4-methoxy-2H-pyrrol-5-one]
Post-emergence herbicidal damage score, ABUTH (Abutilon theophrasti): 5
Post-emergence herbicidal damage score, ALOMY (Alopecurus myosuroides): 5
Post-emergence herbicidal damage score, AMARE (Amaranthus retroflexus): 5
Post-emergence herbicidal damage score, ECHCG (Echinochloa crus-galli): 5
Post-emergence herbicidal damage score, SETFA (Setaria faberi): 5
Post-emergence herbicidal damage score, ZEAMX (Zea mays): 3

CC1=C(Cl)C(O)N(c2cc(C)[nH]n2)C1=O (stereo not drawn) [Compound A5]
Post-emergence herbicidal damage score, ABUTH (Abutilon theophrasti): 5
Post-emergence herbicidal damage score, ALOMY (Alopecurus myosuroides): 4
Post-emergence herbicidal damage score, AMARE (Amaranthus retroflexus): 3
Post-emergence herbicidal damage score, ECHCG (Echinochloa crus-galli): 2
Post-emergence herbicidal damage score, SETFA (Setaria faberi): 4
Post-emergence herbicidal damage score, ZEAMX (Zea mays): 2

CCn1nc(N2C(=O)C(C)=C(Cl)C2O)c2c1C(C)(C)CC2 (stereo not drawn) [Compound C3]
Post-emergence herbicidal damage score, ABUTH (Abutilon theophrasti): 5
Post-emergence herbicidal damage score, ALOMY (Alopecurus myosuroides): 4
Post-emergence herbicidal damage score, AMARE (Amaranthus retroflexus): 5
Post-emergence herbicidal damage score, ECHCG (Echinochloa crus-galli): 5
Post-emergence herbicidal damage score, SETFA (Setaria faberi): 5
Post-emergence herbicidal damage score, ZEAMX (Zea mays): 1

CC1=C(Cl)C(O)N(c2cc(C)n(C)n2)C1=O (stereo not drawn) [Compound B1]
Post-emergence herbicidal damage score, ABUTH (Abutilon theophrasti): 5
Post-emergence herbicidal damage score, ALOMY (Alopecurus myosuroides): 2
Post-emergence herbicidal damage score, AMARE (Amaranthus retroflexus): 5
Post-emergence herbicidal damage score, ECHCG (Echinochloa crus-galli): 2
Post-emergence herbicidal damage score, SETFA (Setaria faberi): 1
Post-emergence herbicidal damage score, ZEAMX (Zea mays): 1

CC1=C(Cl)C(O)N(c2cc(C)n(C(F)F)n2)C1=O (stereo not drawn) [Compound C6]
Post-emergence herbicidal damage score, ABUTH (Abutilon theophrasti): 1
Post-emergence herbicidal damage score, ALOMY (Alopecurus myosuroides): 0
Post-emergence herbicidal damage score, AMARE (Amaranthus retroflexus): 2
Post-emergence herbicidal damage score, ECHCG (Echinochloa crus-galli): 0
Post-emergence herbicidal damage score, SETFA (Setaria faberi): 2
Post-emergence herbicidal damage score, ZEAMX (Zea mays): 1

COC1=C(Cl)C(OC(C)=O)N(c2cc(C(C)(C)C)n(C)n2)C1=O (stereo not drawn) [Compound F3, [1-(5-tert-butyl-1-methyl-pyrazol-3-yl)-3-chloro-4-methoxy-5-oxo-2H-pyrrol-2-yl] acetate]
Post-emergence herbicidal damage score, ABUTH (Abutilon theophrasti): 5
Post-emergence herbicidal damage score, ALOMY (Alopecurus myosuroides): 5
Post-emergence herbicidal damage score, AMARE (Amaranthus retroflexus): 5
Post-emergence herbicidal damage score, ECHCG (Echinochloa crus-galli): 5
Post-emergence herbicidal damage score, SETFA (Setaria faberi): 5
Post-emergence herbicidal damage score, ZEAMX (Zea mays): 3

CC1=C(Cl)C(O)N(c2nn(CC(F)(F)F)c(C)c2C#N)C1=O (stereo not drawn) [Compound C8]
Post-emergence herbicidal damage score, ABUTH (Abutilon theophrasti): 0
Post-emergence herbicidal damage score, ALOMY (Alopecurus myosuroides): 0
Post-emergence herbicidal damage score, AMARE (Amaranthus retroflexus): 1
Post-emergence herbicidal damage score, ECHCG (Echinochloa crus-galli): 0
Post-emergence herbicidal damage score, SETFA (Setaria faberi): 0
Post-emergence herbicidal damage score, ZEAMX (Zea mays): 0

CC1=C(Br)C(O)N(c2cc3n(n2)CCCC3(C)C)C1=O (stereo not drawn) [Compound H8]
Post-emergence herbicidal damage score, ABUTH (Abutilon theophrasti): 5
Post-emergence herbicidal damage score, ALOMY (Alopecurus myosuroides): 5
Post-emergence herbicidal damage score, AMARE (Amaranthus retroflexus): 5
Post-emergence herbicidal damage score, ECHCG (Echinochloa crus-galli): 4
Post-emergence herbicidal damage score, SETFA (Setaria faberi): 4
Post-emergence herbicidal damage score, ZEAMX (Zea mays): 0

COC1=C(C)C(=O)N(c2cc(C(F)(F)F)n(C)n2)C1O (stereo not drawn) [Compound I3]
Post-emergence herbicidal damage score, ABUTH (Abutilon theophrasti): 5
Post-emergence herbicidal damage score, ALOMY (Alopecurus myosuroides): 5
Post-emergence herbicidal damage score, AMARE (Amaranthus retroflexus): 5
Post-emergence herbicidal damage score, ECHCG (Echinochloa crus-galli): 5
Post-emergence herbicidal damage score, SETFA (Setaria faberi): 5
Post-emergence herbicidal damage score, ZEAMX (Zea mays): 4

CCC1=C(Br)C(O)N(c2nn(C)c(C(C)(C)C)c2C#N)C1=O (stereo not drawn) [Compound H6]
Post-emergence herbicidal damage score, ABUTH (Abutilon theophrasti): 1
Post-emergence herbicidal damage score, ALOMY (Alopecurus myosuroides): 2
Post-emergence herbicidal damage score, AMARE (Amaranthus retroflexus): 2
Post-emergence herbicidal damage score, ECHCG (Echinochloa crus-galli): 1
Post-emergence herbicidal damage score, SETFA (Setaria faberi): 2
Post-emergence herbicidal damage score, ZEAMX (Zea mays): 0

CC1=C(Cl)C(O)N(c2nn(C)c3c2CCCCC3(C)C)C1=O (stereo not drawn) [Compound B28]
Post-emergence herbicidal damage score, ABUTH (Abutilon theophrasti): 4
Post-emergence herbicidal damage score, ALOMY (Alopecurus myosuroides): 2
Post-emergence herbicidal damage score, AMARE (Amaranthus retroflexus): 4
Post-emergence herbicidal damage score, ECHCG (Echinochloa crus-galli): 3
Post-emergence herbicidal damage score, SETFA (Setaria faberi): 3
Post-emergence herbicidal damage score, ZEAMX (Zea mays): 1

CC(C)=CCc1cc(N2C(=O)C(C)=C(Cl)C2O)nn1C (stereo not drawn) [Compound B10, 3-chloro-2-hydroxy-4-methyl-1-[1-methyl-5-(3-methylbut-2-enyl)pyrazol-3-yl]-2H-pyrrol-5-one]
Post-emergence herbicidal damage score, ABUTH (Abutilon theophrasti): 2
Post-emergence herbicidal damage score, ALOMY (Alopecurus myosuroides): 0
Post-emergence herbicidal damage score, AMARE (Amaranthus retroflexus): 0
Post-emergence herbicidal damage score, ECHCG (Echinochloa crus-galli): 2
Post-emergence herbicidal damage score, SETFA (Setaria faberi): 3
Post-emergence herbicidal damage score, ZEAMX (Zea mays): 0

CC1=C(Cl)C(O)N(c2cc3n(n2)CCSC3(C)C)C1=O (stereo not drawn) [Compound G6]
Post-emergence herbicidal damage score, ABUTH (Abutilon theophrasti): 5
Post-emergence herbicidal damage score, ALOMY (Alopecurus myosuroides): 4
Post-emergence herbicidal damage score, AMARE (Amaranthus retroflexus): 5
Post-emergence herbicidal damage score, ECHCG (Echinochloa crus-galli): 4
Post-emergence herbicidal damage score, SETFA (Setaria faberi): 4
Post-emergence herbicidal damage score, ZEAMX (Zea mays): 0

CC1=C(Br)C(O)N(c2cc(C(C)(C)C)n(C)n2)C1=O (stereo not drawn) [Compound H1]
Post-emergence herbicidal damage score, ABUTH (Abutilon theophrasti): 5
Post-emergence herbicidal damage score, ALOMY (Alopecurus myosuroides): 4
Post-emergence herbicidal damage score, AMARE (Amaranthus retroflexus): 5
Post-emergence herbicidal damage score, ECHCG (Echinochloa crus-galli): 5
Post-emergence herbicidal damage score, SETFA (Setaria faberi): 3
Post-emergence herbicidal damage score, ZEAMX (Zea mays): 1

CC1=C(Br)C(O)N(c2nn(C)c(C(C)(C)C)c2C#N)C1=O (stereo not drawn) [Compound H5]
Post-emergence herbicidal damage score, ABUTH (Abutilon theophrasti): 2
Post-emergence herbicidal damage score, ALOMY (Alopecurus myosuroides): 1
Post-emergence herbicidal damage score, AMARE (Amaranthus retroflexus): 2
Post-emergence herbicidal damage score, ECHCG (Echinochloa crus-galli): 1
Post-emergence herbicidal damage score, SETFA (Setaria faberi): 1
Post-emergence herbicidal damage score, ZEAMX (Zea mays): 0

CC1=C(Cl)C(O)N(c2cc(S(C)(=O)=O)n(C)n2)C1=O (stereo not drawn) [Compound B20]
Post-emergence herbicidal damage score, ABUTH (Abutilon theophrasti): 5
Post-emergence herbicidal damage score, ALOMY (Alopecurus myosuroides): 3
Post-emergence herbicidal damage score, AMARE (Amaranthus retroflexus): 5
Post-emergence herbicidal damage score, ECHCG (Echinochloa crus-galli): 4
Post-emergence herbicidal damage score, SETFA (Setaria faberi): 5
Post-emergence herbicidal damage score, ZEAMX (Zea mays): 0

CC1=C(Cl)C(O)N(c2cc(Cc3ccccc3)n(C)n2)C1=O (stereo not drawn) [Compound B32]
Post-emergence herbicidal damage score, ABUTH (Abutilon theophrasti): 5
Post-emergence herbicidal damage score, ALOMY (Alopecurus myosuroides): 2
Post-emergence herbicidal damage score, AMARE (Amaranthus retroflexus): 3
Post-emergence herbicidal damage score, ECHCG (Echinochloa crus-galli): 3
Post-emergence herbicidal damage score, SETFA (Setaria faberi): 4
Post-emergence herbicidal damage score, ZEAMX (Zea mays): 0

CC1=C(Br)C(O)N(c2cc3n(n2)CCSC3(C)C)C1=O (stereo not drawn) [Compound H9]
Post-emergence herbicidal damage score, ABUTH (Abutilon theophrasti): 4
Post-emergence herbicidal damage score, ALOMY (Alopecurus myosuroides): 5
Post-emergence herbicidal damage score, AMARE (Amaranthus retroflexus): 4
Post-emergence herbicidal damage score, ECHCG (Echinochloa crus-galli): 3
Post-emergence herbicidal damage score, SETFA (Setaria faberi): 3
Post-emergence herbicidal damage score, ZEAMX (Zea mays): 0

CCOC(c1cc(N2C(=O)C(C)=C(Cl)C2O)nn1C)C(C)(C)C (mixture of isomers) [Compound B16]
Post-emergence herbicidal damage score, ABUTH (Abutilon theophrasti): 0
Post-emergence herbicidal damage score, ALOMY (Alopecurus myosuroides): 0
Post-emergence herbicidal damage score, AMARE (Amaranthus retroflexus): 0
Post-emergence herbicidal damage score, ECHCG (Echinochloa crus-galli): 0
Post-emergence herbicidal damage score, SETFA (Setaria faberi): 0
Post-emergence herbicidal damage score, ZEAMX (Zea mays): 0

From US20160168126A1, “CHEMICAL COMPOUNDS” (SYNGENTA LIMITED, priority 2013, published 2016)
